The text below walks through data of US9181214B2 (RHIZEN PHARMACEUTICALS SA, priority 2011, dated 2015).

The target in the experiment is T1, human GPR119 (Homo sapiens, UniProt Q8TDV5).
T1 construct: expressed in transfected cells; host or cells: HEK293 (transient transfection, Lipofectamine 2000)
T1 sequence (Q8TDV5 1-335): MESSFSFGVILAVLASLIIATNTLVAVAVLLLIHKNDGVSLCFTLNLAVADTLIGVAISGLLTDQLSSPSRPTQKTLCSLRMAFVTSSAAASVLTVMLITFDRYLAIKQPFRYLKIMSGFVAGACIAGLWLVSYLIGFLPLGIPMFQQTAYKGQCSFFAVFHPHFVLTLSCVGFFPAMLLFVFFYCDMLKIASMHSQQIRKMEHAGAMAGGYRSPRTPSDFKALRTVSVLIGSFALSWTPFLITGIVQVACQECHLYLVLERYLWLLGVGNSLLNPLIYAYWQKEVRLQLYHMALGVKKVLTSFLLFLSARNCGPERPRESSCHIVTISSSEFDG
Description: In vitro cyclic AMP assay (Cisbio HTRF) in HEK293 cells transfected with human GPR119. As to conditions: cAMP; for activation at 10 µM: 1 h, % Induction @ 10 μM; for EC50: Emax varies between 65 to 80%. It counts as cell-based. The method, then: A. In Vitro Cyclic AMP Assay:
cAMP measurements were done using a Cisbio dynamic 2 HTRF kit (Cisbio, Bedford, Mass.) according to the manufacturer's protocol. Briefly, HEK293 cells (0.2×10^6/well) were plated in a 24 well plate and incubated overnight at 37° C. Cells were transfected with either empty vector DNA or human GPR119 expression plasmid DNA using Lipofectamine 2000 (Invitrogen). After 24 h, transfected cells were harvested, counted and plated at 1000 cells/5 ul in a black 384 welled small volume plate. Cells were treated with desired concentrations of compounds and incubated for 60 min at room temperature. Lysis buffer containing cAMP-d2 and cryptate conjugate were added and incubated for 1 h. HRTF ratio was measured on a microplate reader (BMG Labtech., Germany) at an excitation wavelength of 337 nm and emission wavelengths of 665 and 620 nm with an integration time of 400 μsec. Data were analyzed using Graphpad Prism (Graphpad software; San Diego Calif.) for EC50 determination.
The results are as given in Table I as % Induction@ 10 μM, Table II as % Induction@ 10 μM and EC 50 in nM

For the setting “Table I”, `CCC(CC)OC(=O)N1CCC(c2nc3cc(-c4ccc(-n5cnnn5)cc4F)ccc3o2)CC1` [EXAMPLE-25, Pentan-3-yl 4-{5-[2-fluoro-4-(1H-tetrazol-1-yl)phenyl]benzo[d]oxazol-2-yl}piperidine-1-carboxylate] yielded an activation at 10 µM of 63.4%. On the same count and under the same terms, as for `Fc1cc(-n2cnnn2)ccc1-c1ccc2oc(C3CCNCC3)nc2c1` [EXAMPLE-26, 5-[2-fluoro-4-(1H-tetrazol-1-yl)phenyl]-2-(piperidin-4-yl)benzo[d]oxazole], the figure is 74%; as for `CC(C)OC(=O)N1CCC(c2nc3cc(-c4ccc(C(F)(F)F)cc4)ccc3o2)CC1` [EXAMPLE-27, Isopropyl 4-{5-[4-(trifluoromethyl)phenyl]benzo[d]oxazol-2-yl}piperidine-1-carboxylate], 46.5%. The same measure, in the same setting: to `CC(C)OC(=O)N1CCC(c2nc3cc(-c4ccc(C=O)cc4)ccc3o2)CC1` [EXAMPLE-28, Isopropyl 4-[5-(4-formylphenyl)benzo[d]oxazol-2-yl]piperidine-1-carboxylate] belongs 45.4%. For the setting “Table I”, `CC(C)OC(=O)N1CCC(c2nc3cc(-c4ccc(C(F)F)cc4)ccc3o2)CC1` [EXAMPLE-29, Isopropyl 4-{5-[4-(difluoromethyl)phenyl]benzo[d]oxazol-2-yl}piperidine-1-carboxylate] showed an activation at 10 µM of 78.6% and an EC50 of 25 to 50 nM. On the same counts, the results for `CC(C)OC(=O)N1CCC(c2nc3cc(-c4ccc(C(N)=O)c(Cl)c4)ccc3o2)CC1` [EXAMPLE-30, Isopropyl 4-[5-(4-carbamoyl-3-chlorophenyl)benzo[d]oxazol-2-yl]piperidine-1-carboxylate] are 62.2% and 500 to 1000 nM. On the same counts, the results for `CC(C)OC(=O)N1CCC(c2nc3cc(-c4ccc(C(N)=O)c(F)c4)ccc3o2)CC1` [EXAMPLE-31, Isopropyl 4-[5-(4-carbamoyl-3-fluorohenyl)benzo[d]oxazol-2-yl]piperidine-1-carboxylate] are 80.4% and ≤ 25 nM. For `CC(C)C(=O)N1CCC(c2nc3cc(-c4ccc(-n5cnnn5)cc4F)ccc3o2)CC1` [EXAMPLE-32, 1-{4-[5-(2-fluoro-4-(1H-tetrazol-1-yl)phenyl)benzo[d]oxazol-2-yl]piperidin-1-yl}-2-methylpropan-1-one] the same measures were 63.9% and 50 to 100 nM. On to `CC(C)(C)OC(=O)N1CC=C(c2cc3cc(-c4ccc(C(N)=O)c(F)c4)ccc3o2)CC1` [EXAMPLE-52, Tert-butyl 4-[5-(4-carbamoyl-3-fluorophenyl)benzofuran-2-yl]-5,6-dihydropyridine-1(2H)-carboxylate], for which, for the setting “Table I”, the activation at 10 µM was found to be 68.4% and the EC50 fell in the range of 100 to 500 nM. Turning to `CCCS(=O)(=O)N1CCC(c2nc3cc(-c4ccc(C(N)=O)c(F)c4)ccc3o2)CC1` [EXAMPLE-53, 2-fluoro-4-{2-[1-(propylsulfonyl)piperidin-4-yl]benzo[d]oxazol-5-yl}benzamide], for the setting “Table I”, the activation at 10 µM was determined as 39.9%. In the case of `CC(C)(C)OC(=O)N1CC=C(c2ccc3[nH]c(-c4ccc(S(C)(=O)=O)cc4F)nc3c2)CC1` [EXAMPLE-56, Tert-butyl 4-{2-[2-fluoro-4-(methylsulfonyl)phenyl]-1H-benzo[d]imidazol-5-yl}-5,6-dihydropyridine-1(2H)-carboxylate], the activation at 10 µM (Table II) was 38.5%. On the same count and under the same terms, as for `CC(C)(C)OC(=O)N1CCC(c2ccc3[nH]c(-c4ccc(S(C)(=O)=O)cc4F)nc3c2)CC1` [EXAMPLE-57, Tert-butyl 4-{2-[2-fluoro-4-(methylsulfonyl)phenyl]-1H-benzo[d]imidazol-5-yl}piperidine-1-carboxylate], the figure is 47%; as for `CCc1cnc(N2CCC(c3ccc4[nH]c(-c5ccc(S(C)(=O)=O)cc5F)nc4c3)CC2)nc1` [EXAMPLE-58, 5-[1-(5-ethylpyrimidin-2-yl)piperidin-4-yl]-2-[2-fluoro-4-(methylsulfonyl)phenyl]-1H-benzo[d]imidazole], 32.2%; as for `CC(C)(C)OC(=O)N1CC=C(c2ccc3oc(-c4ccc(S(C)(=O)=O)cc4F)nc3c2)CC1` [EXAMPLE-59, Tert-butyl 4-{2-[2-fluoro-4-(methylsulfonyl)phenyl]benzo[d]oxazol-5-yl}-5,6-dihydropyridine-1(2H)-carboxylate], 63.8%.

For `CC(C)(C)OC(=O)N1CCC(c2ccc3oc(-c4ccc(S(C)(=O)=O)cc4F)nc3c2)CC1` [EXAMPLE-60, Tert-butyl 4-{2-[2-fluoro-4-(methylsulfonyl)phenyl]benzo[d]oxazol-5-yl}piperidine-1-carboxylate], where the note is “Table II”, the activation at 10 µM came out at 72.8% and the EC50 lay in the range of 25 to 50 nM. Under “Table II”, `CS(=O)(=O)c1ccc(-c2nc3cc(C4CCNCC4)ccc3o2)c(F)c1` [EXAMPLE-61, 2-[2-fluoro-4-(methylsulfonyl)phenyl]-5-(piperidin-4-yl)benzo[d]oxazole 2,2,2-trifluoroacetate] had an activation at 10 µM of 29.8%. Turning to `CCc1cnc(N2CCC(c3ccc4oc(-c5ccc(S(C)(=O)=O)cc5F)nc4c3)CC2)nc1` [EXAMPLE-62, 5-[1-(5-ethylpyrimidin-2-yl)piperidin-4-yl]-2-[2-fluoro-4-(methylsulfonyl)phenyl]benzo[d]oxazole], under “Table II”, the activation at 10 µM amounted to 59.3% and the EC50 is < 500 nM. In turn, `CC(C)(C)OC(=O)N1CCC(c2cc(F)c3oc(-c4ccc(S(C)(=O)=O)cc4F)nc3c2)CC1` [EXAMPLE-63, Tert-butyl 4-{7-fluoro-2-[2-fluoro-4-(methylsulfonyl)phenyl]benzo[d]oxazol-5-yl}piperidine-1-carboxylate] registered an activation at 10 µM (Table II) of 56.6%. The compound `CC(C)(C)OC(=O)N1CC=C(c2ccc3nc(-c4ccc(S(C)(=O)=O)cc4F)sc3c2)CC1` [EXAMPLE-65, Tert-butyl 4-{2-[2-fluoro-4-(methylsulfonyl)phenyl]benzo[d]thiazol-6-yl}-5,6-dihydropyridine-1(2H)-carboxylate] yielded an activation at 10 µM (Table II) of 32.1%.

Compound `CC(C)(C)OC(=O)N1CC=C(c2ccc3sc(-c4ccc(S(C)(=O)=O)cc4F)nc3c2)CC1` [EXAMPLE-66, Tert-butyl 4-{2-[2-fluoro-4-(methylsulfonyl)phenyl]benzo[d]thiazol-5-yl}-5,6-dihydropyridine-1(2H)-carboxylate] had an activation at 10 µM (Table II) of 18.9%. With `CC(C)(C)OC(=O)N1CCC(c2ccc3nc(-c4ccc(S(C)(=O)=O)cc4F)oc3c2)CC1` [EXAMPLE-67, Tert-butyl 4-{2-[2-fluoro-4-(methylsulfonyl)phenyl]benzo[d]oxazol-6-yl}piperidine-1-carboxylate], where the note is “Table II”, the activation at 10 µM amounted to 73% and the EC50 is 25 to 50 nM. The compound `CC(C)(C)OC(=O)N1CCC(c2ccc3sc(-c4ccc(S(C)(=O)=O)cc4F)nc3c2)CC1` [EXAMPLE-68, Tert-butyl 4-{2-[2-fluoro-4-(methylsulfonyl)phenyl]benzo[d]thiazol-5-yl}piperidine-1-carboxylate] showed an activation at 10 µM (Table II) of 72.7%. Where the note is “Table II”, `CCOC(=O)N1CCC(c2ccc3oc(-c4ccc(S(C)(=O)=O)cc4F)nc3c2)CC1` [EXAMPLE-69, Ethyl 4-{2-[2-fluoro-4-(methylsulfonyl)phenyl]benzo[d]oxazol-5-yl}piperidine-1-carboxylate] displayed an activation at 10 µM of 71.8% and an EC50 of 25 to 50 nM.

On to `CC(C)(C)OC(=O)N1CCC(c2ccc3oc(-c4ccc(C(F)(F)F)cc4)nc3c2)CC1` [EXAMPLE-70, Tert-butyl 4-{2-[4-(trifluoromethyl)phenyl]benzo[d]oxazol-5-yl}piperidine-1-carboxylate], for which, under “Table II”, the activation at 10 µM is 64.7% and the EC50 is ≤ 25 nM.

In the case of `CC(C)OC(=O)N1CCC(c2ccc3nc(-c4ccc(S(C)(=O)=O)cc4F)oc3c2)CC1` [EXAMPLE-71, Isopropyl 4-{2-[2-fluoro-4-(methylsulfonyl)phenyl]benzo[d]oxazol-6-yl}piperidine-1-carboxylate], where the note is “Table II”, the activation at 10 µM is 76.6% and the EC50 is ≤ 25 nM. For `CCOC(=O)N1CCC(c2ccc3nc(-c4ccc(S(C)(=O)=O)cc4F)oc3c2)CC1` [EXAMPLE-72, Ethyl 4-{2-[2-fluoro-4-(methylsulfonyl)phenyl]benzo[d]oxazol-6-yl}piperidine-1-carboxylate] the same measures were 81.6% and ≤ 25 nM. On the same counts, the results for `CC(C)OC(=O)N1CCC(c2ccc3sc(-c4ccc(S(C)(=O)=O)cc4F)nc3c2)CC1` [EXAMPLE-73] are 46% and 500 to 1000 nM. For `CS(=O)(=O)c1ccc(-c2nc3cc(C4CCN(C(=O)OCc5ccccc5)CC4)ccc3o2)c(F)c1` [EXAMPLE-74, Benzyl 4-{2-[2-fluoro-4-(methylsulfonyl)phenyl]benzo[d]oxazol-5-yl}piperidine-1-carboxylate], the activation at 10 µM (Table II) was found to be 14.7%.
